Experimental findings from patent publication US20230151432A1, “KIF18A INHIBITORS FOR TREATMENT OF NEOPLASTIC DISEASES” (AMGEN INC., priority 2020, published 2023) are described below.

Series [1] deals with human bone marrow mononuclear cells (HBMNC). Description: BrdU cell cycle analysis and live cell count in normal cells. In kind it is cell-based. The conditions noted are these: two normal donors; for BrdU incorporation (cell cycle analysis) relative to DMSO/vehicle control: 48 h, C9, C11, palbociclib 1 μM, ispinesib 0.05 μM, paclitaxel; for live cell count relative to vehicle control: 96 hours. How it is done: The effect KIF18A inhibitor treatment has on proliferation of normal somatic cells (e.g., not neoplastic cells) was tested by assaying proliferation of human bone marrow mononuclear cells (HBMNCs), primary human foreskin fibroblast cells (hFSF) and human mammary epithelial cells via a 5-bromo-2′-deoxyuridine (BrdU) incorporation assay in which BrdU, an analog of the nucleoside thymidine, is used to identify proliferating cells (Payton et. al., Molecular Cancer Therapeutics, 17(12):2575-85 (2018)). Cells were analyzed on BD LSRFortessa flow cytometer using BD FACSDiva software (BD Biosciences), and post-acquisition data analysis was performed using FSC-Express software (De Novo). The percentage of BrdU positive gated events on the stacked DNA content histograms were reported.
To further examine the effects of KIF18A inhibitor treatment on HBMNC, two normal donors were assessed using the BrdU coupled cell cycle assay and cell count assay (96 hours) was. […] In particular, the amount of BrdU-stained proliferating cells treated with Ispinesib, paclitaxel, or a CDK 4/6 inhibitor (palbociclib) was far less than the amount of vehicle control-treated BrdU-stained cells. […] KIF18A inhibitor treatment was also analyzed for impact on live cell count. After 96 hours, live cells were counted by Vi-CELL XR Cell Viability Analyzer (Beckman Coulter).
To investigate whether KIF18A inhibitors could circumvent this normal cell toxicity barrier, we examined the effects of Compounds C9 and C11 on a panel of cycling normal somatic cell types. First, we treated human bone marrow mononuclear cells (HBMNC) from two normal donors with DMSO, Compound C9 and C11 at 1 μM, ispinesib at 0.05 μM, paclitaxel at 0.05 μM, or palbociclib at 1 μM for 48 h (cell cycle) or 96 h (cell growth).
BrdU and cell cycle analysis. Human bone marrow mononuclear cells (HBMNCs) from two normal donors (#37612, #37534) were cultured for 8 days in defined media as previously described (Payton et al 2018). HBMNCs were seeded in 24-well plate at 1.2×10^6 cells per well in duplicate plates. Cells were treated with DMSO, Compound C9 (1 μM), Compound C11 (1 μM), ispinesib (0.05 μM), paclitaxel ([…]), or palbociclib (1 μM). Cells were collected at 48 h (cell cycle) and 96 h (cell growth). The first set of plates were pulsed with BrdU for 2 h and processing for BrdU cell cycle analysis as previously described (Payton et al 2018). Cells were analyzed on BD LSRFortessa flow cytometer running BD FACSDiva software and post-acquisition data analysis was performed using FSC-Express software. Data was reported for the percentage of BrdU and subG1 gated populations. The second set of plates were collected, and cells counted using Vi-CELL XR Cell Viability Analyzer (Beckman Coulter).

Another series deals with MDA-MB-157 TNBC cells. Description: Imaging-based Centrosome Count Assay (CCA). In kind it is cell-based. The following applies: Homo sapiens, 24 hours of treatment. How it is done:
To analyze the effects of a KIF18A inhibitor on the mitotic phenotype of cancer cells, an imaging-based Centrosome Count Assay (CCA) carried out using a KIF18A inhibitor was carried out. In preparation for plating, MDA-MB-157 TNBC cells were resuspended seven times through a 10 mL syringe with 18-G needle to create a single-cell suspension. Cells were seeded at a density of 30 000 cells per well using the BRAVO Automated Liquid Handling Platform (Agilent Technologies, Santa Clara, Calif.) into Corning 96-well Flat Clear Bottom Black Polystyrene plate (Corning, N.Y.) in 100 μL of complete media and grown for 24 hours. […] Imaging data was acquired on Cellomics ArrayScan VTI HCS Reader (SN03090745F, ThermoFisher Scientific) using the SpotDetector.V4 Assay protocol (Ver 6.6.0 (Build 8153) with a 20×objective, experiment #1 collected 100-fields per well; experiment #2 collected 67-fields per well). […] The percentage of mitotic objects with >2 pericentrin spots (proxy for centrosome number) was determined for each well. […] This represents the total valid p-Histone H3 positive mitotic object count based on the set fluorescence intensity threshold using alexa-647 (channel 3). • (3) % Selected Object pHH3. […]

Entries after “also recorded” stand apart in the source; their conditions may differ. Read-outs that look alike come from different tables or passages of the source.

Consider `CC(C)(C)NS(=O)(=O)c1cccc(NC(=O)c2ccc(S(=O)(=O)NC(C)(C)C)cc2N2CCC3(CC2)CC3)c1` [Compound C9, 4-(N-(tert-butyl)sulfamoyl)-N-(3-(N-(tert-butyl)sulfamoyl)phenyl)-2-(6-azaspiro[2.5]octan-6-yl)benzamide], for which, in series [1], the “BrdU incorporation (cell cycle analysis) relative to DMSO/vehicle control” value was “about the same; also recorded: minimal diminution in BrdU incorporation” and the “live cell count relative to vehicle control” value was “little to no effect; also recorded: comparable cell counts”.

As a reminder, the EC50 is the concentration that produces a half-maximal response. `Cc1cc(NC(=O)c2ccc(NS(=O)(=O)CCO)cc2N2CCC3(CC2)CC3)nc(N2CCC(F)(F)CC2)n1` [Compound C14, N-(2-(4,4-Difluoropiperidin-1-yl)-6-methylpyrimidin-4-yl)-4-((2-hydroxyethyl)sulfonamido)-2-(6-azaspiro[2.5]octan-6-yl)benzamide]: the EC50 in the series on MDA-MB-157 TNBC cells (read-out: EC50, increase in p-Histone H3 positive cells) turned out to be 79.4 nM; with MDA-MB-157 TNBC cells (read-out: EC50, pericentrin spotting (>2 spots per mitotic object)) it was 52.2 nM.

With `CC(C)(CO)Nc1ccc(C(=O)Nc2cccc(S(=O)(=O)C3CCCC3)c2)c(N2CCC3(CC2)CC3)n1` [Compound C11, N-(3-(cyclopentylsulfonyl)phenyl)-6-((1-hydroxy-2-methylpropan-2-yl)amino)-2-(6-azaspiro[2.5]octan-6-yl)nicotinamide], in series [1], the “BrdU incorporation (cell cycle analysis) relative to DMSO/vehicle control” value is reported as “about the same; also recorded: minimal diminution in BrdU incorporation” and the “live cell count relative to vehicle control” value was “little to no effect; also recorded: comparable cell counts”.
